Like-named read-outs stand apart in the source and are kept apart here.

Data set [1] has as its system HIV-1 constructs containing wild-type IN. The data set is described as follows: microbe, parasite or virus in culture. In kind it is cell-based. The following applies: for EC50: Human immunodeficiency virus 1, WT IN, read-out: EC50 (nM, WT). The source says:
(§1) Single-Round HIV-1 Infectivity Assay.
(§2) Human embryonyl kidney cell culture cell line 293 was acquired from the American type Culture Collection (ATCC).
(§3) The virus-containing supernatants were then harvested, clarified by low-speed centrifugation, filtrated, and diluted for preparation in infection assays. […] Activity was normalized to infectivity in the absence of target compounds. KaleidaGraph (Synergy Software, Reading, Pa.) was used to perform regression analysis on the data. EC50 values were determined from the fit model.

Data set [2] is described as follows: in vitro. In kind it is cell-based, human. The conditions noted are these: human, 50% reduction in the level of ATP in HOS cells. As to the method:
Cellular Cytotoxicity Assay.
On the day of the screen, cells were treated with compounds at the appropriate concentration range chosen and incubated at 37° C. for 48 hrs. Cytotoxicity was measured by monitoring ATP levels via a luciferase reporter assay. Cells were lysed in 50 μL cell lysis buffer (PerkinElmer, Waltham, Mass.) and shaken at 700 rpm at room temperature for 5 mins After the addition of 50 μL of ATPlite buffer (PerkinElmer) directly onto the lysed cells and shaking at 700 rpm at room temperature for 5 mins, ATP levels were monitored by measuring luciferase activity using a microplate reader. Activity was normalized to cytotoxicity in the absence of target compounds. KaleidaGraph (Synergy Software, Reading, Pa.) was used to perform regression analysis on the data. CC50 values were determined from the fit model.

Data set [3] has as its target HIV-1 integrase (Human immunodeficiency virus type 1 group M subtype B, UniProt P12497). The data set is described as follows: biochemical. In kind it is biochemical. As for the experimental part: In Vitro Integrase Assay.
Integrase reactions were carried out by adding drugs or an equivalent volume of 100% dimethyl sulfoxide (DMSO; used as the drug solvent) to a mixture of 20 nM DNA and 400 nM integrase in 50 mM morpholinepropanesulfonic acid (pH 7.2), 7.5 mM MgCl2, and 14 mM 2-mercaptoethanol. Reactions were performed at 37° C. for 2 h and quenched by the addition of an equal volume of loading buffer (formamide containing 1% sodium dodecyl sulfate, 0.25% bromophenol blue, and xylene cyanol). […] Dried gels were visualized using a Typhoon 8600 (GE Healthcare, Piscataway, N.J.). Densitometric analyses were performed using ImageQuant 5.1 software from GE Healthcare.

Data set [4] concerns HIV-1 constructs containing mutant IN N155H. The data set is described as follows: microbe, parasite or virus in culture. In kind it is cell-based. The following applies: Human immunodeficiency virus 1; Table 3; read-out: EC50 (nM, IN Mutants) N155H.
Source text: as §1, §2, §3
(§4) pNLNgoMIVR^−ΔEnv.LUC has been described previously (Zhao et al. 2008). The integrase codon reading frame was removed from pNLNgoMIVR^−ΔEnv LUC (between KpnI and SalI sites) and placed between the KpnI and SalI sites of pBluescript II KS+. Using that construct as the wild-type template, we prepared the following HIV-1 Integrase-resistant mutants via the QuikChange II XL (Stratagene, La Jolla, Calif.) site-directed mutagenesis protocol: H51Y, T66I, E92Q, G118R, Y143R, Q148H, Q148K, N155H, R263K, G140S+Q148H, G140A+Q148K, E138K+Q148K, and H51Y+R263K. The following sense with cognate antisense (not shown) oligonucleotides (Integrated DNA Technologies, Coralville, Iowa) were used in the mutagenesis: H51Y, 5′-[…]-3; T66I, 5′-[…]-3′; E92Q, 5′-[…]-3′; G118R, 5′-[…]-3′; E138K, 5′-[…]-3; G140A, 5′-[…]-3; G140S, 5′-[…]-3′; Y143R, 5′-[…]-3′; Q148H, 5′-[…]-3′; Q148K, 5′-[…]-3; N155H, 5′-[…]-3′; R263K 5′-[…]-3′. The double mutation G140S+Q148H was constructed by using the previously generated Q148H mutant and the appropriate oligonucleotide for the 2nd mutation, G140S. The double mutation G140A+Q148K was made by using the Q148K mutant and the appropriate oligonucleotide for the 2nd mutation, G140A. The double mutation E138K+Q148K was made by using the Q148K mutant and the appropriate oligonucleotide for the 2nd mutation, E138K. The double mutation H51Y+R263K was constructed by using the previously generated H51Y mutant and the appropriate oligonucleotides for the 2nd mutation, R263K. The DNA sequence of each construct was verified independently by DNA sequence determination. […] These DNA sequences were additionally checked independently by DNA sequence determination.

Data set [5] has as its system HIV-1 constructs containing mutant IN Y143R. The data set is described as follows: microbe, parasite or virus in culture. The following applies: Human immunodeficiency virus 1, read-out: EC50 (nM, IN Mutants) Y143R. In kind it is cell-based.
Source text: as §1, §2, §3, §4

Setting [6] is: read-out: IC50 (3^+-Processing).
Where [7] appears, read: read-out: IC50 (Strand Transfer).
Setting [8] is: Table 4, 3′-processing, read-out: IC50 (3^+-Processing).
Where [9] appears, read: Table 4, strand transfer, read-out: IC50 (Strand Transfer).
The mark [10] stands for this setting: Table 1, 3′-processing, read-out: IC50 Values 3′-Processing.
[11] abbreviates: Table 1, strand transfer, read-out: IC50 Values Strand transfer.

Consider `O=C(NCc1ccc(F)cc1F)c1c(Nc2ccccc2)c2cccnc2n(O)c1=O` [XZ377, N-(2,4-difluorobenzyl)-1-hydroxy-2-oxo-4-(phenylamino)-1,2-dihydro-1,8-naphthyridine-3-carboxamide], for which, in data set [1], the “Si (selectivity index)” value was >17,857. In addition, the concentration giving a half-maximal response (EC50) (usually the concentration giving half of the maximal effect) in data set [1] (Table 3) is 14.2 ± 1.9 nM; in data set [4] it was 110 ± 17.2 nM; in data set [5] (Table 3) it was 24.9 ± 6.4 nM. Besides, the CC50 (usually the concentration at which the toxic effect on the cells reaches its halfway point) in data set [2] (Table 3) was above 250000 nM. Also, the IC50 (in general, the concentration at which inhibition is half-maximal) in data set [3] (setting [6]) was found to be 6900 ± 1100 nM; in data set [3] (setting [7]), 18 ± 6 nM.
In the case of `O=C(NCc1ccc(F)cc1F)c1c(Nc2ccc(-c3ccccc3)cc2)c2cccnc2n(O)c1=O` [XZ385, 4-([1,1′-biphenyl]-4-ylamino)-N-(2,4-difluorobenzyl)-1-hydroxy-2-oxo-1,2-dihydro-1,8-naphthyridine-3-carboxamide], the figures for the EC50 in data set [1] (Table 3) and in data set [5] (Table 3) were 372 ± 63 nM and 361 ± 84 nM, respectively. For the same compound, the “Si (selectivity index)” value in data set [1] (Table 3, ratio of CC50 to EC50) is listed as above 673. Besides, the 50% cytotoxic concentration (CC50) in data set [2] (Table 3) was above 250000 nM. The IC50 in data set [3] (setting [8]) worked out at 52000 ± 5000 nM; in data set [3] (setting [9]), 340 ± 80 nM.
As for `O=C(NCc1ccc(F)cc1F)c1c(Nc2ccc3c(c2)Cc2ccccc2-3)c2cccnc2n(O)c1=O` [XZ386, 4-((9H-fluoren-2-yl)amino)-N-(2,4-difluorobenzyl)-1-hydroxy-2-oxo-1,2-dihydro-1,8-naphthyridine-3-carboxamide], the concentration for a half-maximal effect (EC50) in data set [1] (Table 3) came to 171 ± 56.8 nM; in data set [5] (Table 3), 448 ± 28.1 nM. Also, in data set [1] (Table 3, ratio of CC50 to EC50), the “Si (selectivity index)” value is listed as >1,462. For the same compound, the CC50 in data set [2] (Table 3) is above 250000 nM. Further, the 50% inhibitory concentration (IC50) amounted to 46000 ± 8000 nM in data set [3] (setting [8]) and 840 ± 210 nM in data set [3] (setting [9]).
Take `Nc1ccc(-c2ccc(Nc3c(C(=O)NCc4ccc(F)cc4F)c(=O)n(O)c4ncccc34)cc2)cc1` [XZ387, 4-((4′-amino-[1,1′-biphenyl]-4-yl)amino)-N-(2,4-difluorobenzyl)-1-hydroxy-2-oxo-1,2-dihydro-1,8-naphthyridine-3-carboxamide]: the values for the EC50 in data set [1] (Table 3), in data set [4] and in data set [5] (Table 3) were 6.3 ± 2.4 nM, 423 ± 168 nM and 102 ± 1.4 nM, respectively. The “Si (selectivity index)” value in data set [1] (Table 3, ratio of CC50 to EC50) is recorded as >25,000. Further, in data set [2] (Table 3), the CC50 was above 250000 nM. In addition, the values for the concentration for half-maximal inhibition (IC50) in data set [3] (setting [8]) and in data set [3] (setting [9]) were 80000 ± 11000 nM and 130 ± 20 nM, respectively.
On to `N#Cc1ccc(-c2ccc(Nc3c(C(=O)NCc4ccc(F)cc4F)c(=O)n(O)c4ncccc34)cc2)cc1` [XZ388, 4-((4′-cyano-[1,1′-biphenyl]-4-yl)amino)-N-(2,4-difluorobenzyl)-1-hydroxy-2-oxo-1,2-dihydro-1,8-naphthyridine-3-carboxamide], for which the results for the concentration for a half-maximal effect (EC50) in data set [1] (Table 3) and in data set [5] (Table 3) were 123 ± 20.7 nM and 346 ± 38.3 nM, respectively. Moreover, the “Si (selectivity index)” value in data set [1] (Table 3, ratio of CC50 to EC50) is >2,033. In addition, the CC50 in data set [2] (Table 3) is above 250000 nM. The IC50 in data set [3] (setting [8]) was 70000 ± 7000 nM; in data set [3] (setting [9]) it was 130 ± 30 nM.
Turning to `O=C(NCc1ccc(F)c(Cl)c1)c1cc2cccnc2n(O)c1=O` [XZ391, N-(3-chloro-4-fluorobenzyl)-1-hydroxy-2-oxo-1,2-dihydro-1,8-naphthyridine-3-carboxamide], the “Si (selectivity index)” value in data set [1] is >6,667. Also, the results for the EC50 in data set [1] (Table 3), in data set [4] and in data set [5] (Table 3) were 37.5 ± 14.5 nM, 90.3 ± 5.6 nM and 33.9 ± 5.5 nM, respectively. Also, in data set [2] (Table 3), the CC50 is above 250000 nM. Moreover, the IC50 in data set [3] (setting [10]) was found to be 9400 ± 1500 nM; in data set [3] (setting [11]) it was 14 ± 3 nM.
Turning to `O=C(NCc1ccc(F)c(F)c1)c1cc2cccnc2n(O)c1=O` [XZ392, N-(3,4-difluorobenzyl)-1-hydroxy-2-oxo-1,2-dihydro-1,8-naphthyridine-3-carboxamide], the “Si (selectivity index)” value in data set [1] is >4,058. Moreover, the results for the EC50 in data set [1] (Table 3), in data set [4] and in data set [5] (Table 3) were 61.6 ± 13.8 nM, 2200 ± 61 nM and 39.7 ± 12.5 nM, respectively. Also, the cytotoxic concentration (CC50) in data set [2] (Table 3) is above 250000 nM. Also, the IC50 in data set [3] (setting [10]) came to 13600 ± 1800 nM; in data set [3] (setting [11]), 17 ± 3 nM.
In the case of `COC(=O)[C@H](Nc1c(C(=O)NCc2ccc(F)cc2F)c(=O)n(O)c2ncccc12)c1ccccc1` [XZ397, (R)-methyl 2-((3-((2,4-difluorobenzyl)carbamoyl)-1-hydroxy-2-oxo-1,2-dihydro-1,8-naphthyridin-4-yl)amino)-2-phenylacetate], the figures for the half-maximal effective concentration (EC50) in data set [1] (Table 3) and in data set [4] were 7.4 ± 3.3 nM and 21.6 ± 3.7 nM, respectively. The CC50 in data set [2] (Table 3) was above 250000 nM.
On to `COC(=O)[C@H](CO)Nc1c(C(=O)NCc2ccc(F)cc2F)c(=O)n(O)c2ncccc12` [XZ398, (S)-methyl 2-((3-((2,4-difluorobenzyl)carbamoyl)-1-hydroxy-2-oxo-1,2-dihydro-1,8-naphthyridin-4-yl)amino)-3-hydroxypropanoate], for which the EC50 in data set [1] (Table 3) was determined as 9.7 ± 3 nM. Also, the CC50 in data set [2] (Table 3) is above 250000 nM. Besides, the IC50 in data set [3] (setting [6]) was determined as 5800 ± 500 nM; in data set [3] (setting [7]), 8.4 ± 3.2 nM.
The corresponding values for `COC(=O)[C@@H](CO)Nc1c(C(=O)NCc2ccc(F)cc2F)c(=O)n(O)c2ncccc12` [XZ399, (R)-methyl 2-((3-((2,4-difluorobenzyl)carbamoyl)-1-hydroxy-2-oxo-1,2-dihydro-1,8-naphthyridin-4-yl)amino)-3-hydroxypropanoate] are 14.2 ± 3.71 nM, above 250000 nM, 4400 ± 500 nM and 13 nM.
Turning to `NCCNc1c(C(=O)NCc2ccc(F)cc2F)c(=O)n(O)c2ncccc12` [XZ403, 4-((2-aminoethyl)amino)-N-(2,4-difluorobenzyl)-1-hydroxy-2-oxo-1,2-dihydro-1,8-naphthyridine-3-carboxamide], in data set [1] (Table 3), the EC50 came to 34.7 ± 10.5 nM. For the same compound, in data set [2] (Table 3), the CC50 was found to be 9600 ± 3700 nM. For the same compound, the figures for the IC50 in data set [3] (setting [6]) and in data set [3] (setting [7]) were 4500 ± 200 nM and 39 ± 6 nM, respectively.
As to `CCOC(=O)[C@@H]1CCCN1c1c(C(=O)NCc2ccc(F)cc2F)c(=O)n(O)c2ncccc12` [XZ404, (S)-ethyl 1-(3-((2,4-difluorobenzyl)carbamoyl)-1-hydroxy-2-oxo-1,2-dihydro-1,8-naphthyridin-4-yl)pyrrolidine-2-carboxylate], the EC50 was 590 ± 71.8 nM in data set [1] (Table 3) and 1660 ± 920 nM in data set [5] (Table 3). Besides, the “Si (selectivity index)” value in data set [1] (Table 3, ratio of CC50 to EC50) turned out to be 31. Further, the CC50 in data set [2] (Table 3) was found to be 18200 ± 7100 nM. The IC50 was 86000 ± 6000 nM in data set [3] (setting [8]) and 310 ± 40 nM in data set [3] (setting [9]).
As to `COc1ccc2c(O)c(C(=O)NCc3ccc(F)cc3F)c(=O)n(O)c2n1` [XZ405, N-(2,4-difluorobenzyl)-1,4-dihydroxy-7-methoxy-2-oxo-1,2-dihydro-1,8-naphthyridine-3-carboxamide], the EC50 in data set [1] (Table 5) is 186 ± 23.2 nM; in data set [5] (Table 5), 215 ± 31 nM. Besides, the SI in data set [1] (Table 5, ratio of CC50 to EC50) came out at 65. Moreover, the CC50 in data set [2] (Table 5) stood at 12100 ± 4600 nM. Further, the figures for the IC50 in data set [3] (setting [8]) and in data set [3] (setting [9]) were 32000 ± 4000 nM and 33 ± 5 nM, respectively.

(Values after US9676771B2, “Compounds for inhibiting drug-resistant strains of HIV-1 integrase” (priority 2013, dated 2017).)
